# Key:
# [1] = system: liver [肝脏]; type: in vivo, rat; conditions: for hepatotoxicity: conclusion, given together (27/200/100 mg/kg), 28 days
# [2] = system: kidney [肾脏]; test: Kidney histopathology / renal safety; type: in vivo, rat; conditions: conclusion; given together (27/200/100 mg/kg), 28 days
# [3] = system: polycystic ovary syndrome rat model [多囊卵巢综合征大鼠模型]; test: Oestrous cycle by vaginal exfoliative cytology, DHEA-induced PCOS rats; type: in vivo; conditions: oral gavage 28 days, then 10 days of vaginal cytology, combination 27/200/100 mg/kg, spironolactone 20 mg/kg
# [4] = system: polycystic ovary syndrome rat model [多囊卵巢综合征动物模型]; test: Ovarian wet weight and ovarian coefficient; type: in vivo; conditions: 28 days gavage; ovarian wet weight significantly lower than model group
# [5] = system: CYP17 mRNA; test: RT-PCR of ovarian tissue, CYP17 mRNA; type: in vivo, rat; conditions: vs model group, 28 days gavage
# [6] = system: AR mRNA; test: RT-PCR of ovarian tissue, AR mRNA; type: in vivo, rat; conditions: vs model group, 28 days gavage
# [7] = system: 3β-HSD mRNA; test: RT-PCR of ovarian tissue, 3β-HSD mRNA; type: in vivo, rat; conditions: vs model group, 28 days gavage
Compound,hepatotoxicity [1],nephrotoxicity [2],sexual cycle recovery rate [3],"increase of ovarian volume and wet weight in model rats, effect of treatment [4]","liver histopathology ([1]; rat, in vivo)",CYP17 mRNA expression in ovarian tissue [5],AR mRNA expression in ovarian tissue [6],3β-HSD mRNA expression in ovarian tissue [7]
"O=c1c(O)c(-c2ccc(O)c(O)c2)oc2cc(O)cc(O)c12 [槲皮素, 槲皮素(Quercetin)]",均不具有肝肾毒性,均不具有肝肾毒性,,,,,,
"CC(=O)S[C@@H]1CC2=CC(=O)CC[C@]2(C)[C@H]2CC[C@@]3(C)[C@@H](CC[C@@]34CCC(=O)O4)[C@H]12 [螺内酯, 螺内酯(Spironolactone)]",,,80%,均可以逆转这种情况,"个别出现肝细胞脂肪样变性,胞浆透明度增加,细胞胞浆不清,部分细胞核崩解,肝板破坏,汇管区增粗",显著降低,显著降低,显著降低
"C[C@H]1COC2=C1C(=O)C(=O)c1c2ccc2c1CCCC2(C)C [隐丹参酮, 隐丹参酮(Cryptotanshinone)]",均不具有肝肾毒性,均不具有肝肾毒性,,,,,,
"O=C(O)[C@H]1O[C@@H](Oc2cc3oc(-c4ccccc4)cc(=O)c3c(O)c2O)[C@H](O)[C@@H](O)[C@@H]1O [黄芩苷, 黄芩苷(Baicalin)]",均不具有肝肾毒性,均不具有肝肾毒性,,,,,,

# Reference: patent publication CN103285022A, “用于制备治疗多囊卵巢综合征的中药单体组合物及其制备方法” (Second Military Medical University SMMU, priority 2013, dated 2013)
